Measured values from patent US20200276165A1, “OVOTIOLS FOR THE TREATMENT OF CHRONIC LOW-GRADE SYSTEMIC INFLAMMATION (CLGSI) AND RELATED DISEASES” (UNIVERSITA' DEGLI STUDI G. D'ANNUNZIO CHIETI - PESCARA, priority 2017, published 2020).

Assays:
[1] = test system: C-HUVECs; experiment: MTT assay, cell viability; assay type: cell-based, human; details: C-HUVEC
Excerpt: (§1) Cell endothelial cultures and experimental protocols: umbilical cords were obtained from randomly selected healthy Caucasian (Control, C) and with Gestational Diabetes (GD) mothers delivering at the Hospital of Chieti and Pescara. All procedures were in agreement with the ethical standards of the Institutional Committee on Human Experimentation (Reference Number: 1879/09COET) and with the Declaration of Helsinki Principles. After approval of the protocol by the Institutional Review Board, signed informed consent was obtained from each participating subject. Primary C- and GD-HUVECs were obtained and used between the 3rd and 5th passages in vitro. To evaluate the potential cytotoxicity of ovothiol, HUVECs were stimulated for 24 h with different doses (10-100 μM) of ovothiol A. The best doses of ovothiol A were used to evaluate their effects on the cells treated with TNF (1 ng/ml, Sigma Aldrich) which activated the inflammatory response. Briefly, HUVECs were grown to sub-confluence in complete culture medium DMEM/M199 (Mascia Brunelli, Italia). The cells were pre-incubated with ovothiol A (10 and 50 μM) for 24 hours or with medium alone as basal condition. Subsequently the cells were stimulated with TNF for 16 hours.
(§2) MTT assay: ovothiol effect on the viability of C- and GD-HUVECs was evaluated by the 3-(4,5 dimethylthiazolyl-2)-2,5-diphenyltetrazolium bromide (MTT, Sigma-Aldrich) assay. 1×10^5 cells were plated in 96-well plates, grown to sub-confluence with the medium alone (as control) or stimulated for 24 h with growing doses of ovothiol A (10-100 μM), in the presence or absence of TNFα stimulation (1 ng/ml). A solution of MTT in phosphate buffer saline (PBS) was added to each well to a final concentration of 5 mg/ml. After 3 h incubation at 37° C., the cellular viability was evaluated before addition of 0.2 ml dimethylsulfoxide (DMSO, Sigma-Aldrich) for crystal solubilization in the vital cells. The absorbance at 540 nm was read using a micro-plate reader (SpectraMAX 190, Molecular Devices Inc., Sunnyvale, Calif., USA) and results were expressed as the absorbance at 540 nm (ABS 540 nm).

[2] = test system: GD-HUVECs; experiment: MTT assay, cell viability; assay type: cell-based, human; details: GD-HUVEC
Excerpt: as §1, §2

[3] = test system: intracellular GSH in GD-HUVECs; experiment: Determination of intracellular glutathione levels (GSH); assay type: cell-based, human; details: GD-HUVEC, after 10 minutes of incubation of ovothiol A
Experimental: Analysis of Ovothiol A levels in cell cultures: HUVEC cells (1,2×10^6 cellule) were cultured in flasks (25 cm^2) in the absence and in the presence of 50 μM ovothiol A and collected after incubation at different time intervals. The culture media were recovered by centrifugation and frozen for ovothiol A quantitation by HPLC analysis. The cellular pellets were resuspended in PBS pH 7.5, sonicated three times for 15 sec and 30% amplitude. The samples were then centrifuged at 13.000 rpm over 15 min to remove cellular debris, ultrafiltered by Microcon 3 to remove all molecules with MW>3 kDa and frozen for further analysis by HPLC. HPLC analyses were performed in duplicate on an LC10AD instrument equipped with binary pumps and a Shimadzu SPD-10AVP detector set at 254 nm and 280 nm. […]
Determination of intracellular glutathione levels (GSH): total GSH was determined by using the Glutathione Assay Kit (Sigma). […] The supernatant was used for the determination of glutathione by performing a kinetic assay in which catalytic amounts (nmoles) of GSH caused a continuous reduction of 5,5-dithiobis (2-nitrobenzoic acid) (DTNB) to 5-thio-2-nitrobenzoic (TNB), measured at 405 nm by a Thermo Scientific™ Multiskan™ FC Microplate Photometer.

[4] = test system: C-HUVECs; experiment: Analysis of ovothiol A levels in cell cultures (HPLC); assay type: in vitro ADME, human
Experimental: (§3) Analysis of Ovothiol A levels in cell cultures: HUVEC cells (1,2×10^6 cellule) were cultured in flasks (25 cm^2) in the absence and in the presence of 50 μM ovothiol A and collected after incubation at different time intervals. The culture media were recovered by centrifugation and frozen for ovothiol A quantitation by HPLC analysis. The cellular pellets were resuspended in PBS pH 7.5, sonicated three times for 15 sec and 30% amplitude. The samples were then centrifuged at 13.000 rpm over 15 min to remove cellular debris, ultrafiltered by Microcon 3 to remove all molecules with MW>3 kDa and frozen for further analysis by HPLC. HPLC analyses were performed in duplicate on an LC10AD instrument equipped with binary pumps and a Shimadzu SPD-10AVP detector set at 254 nm and 280 nm. A Phenomenex Synergi Sphereclone octadecylsilane (25 cm×0.46 cm, 4 μm particle size) column was used with 1% formic acid taken to pH 4.5 with ammonia, as the eluant, at a 0.7 mL/min flow rate.

[5] = test system: GD-HUVECs; experiment: as above; assay type: in vitro ADME, human
Experimental: as §3

[6] = test system: U937 monocytes adhesion to C-HUVECs; experiment: Adhesion of monocytes to endothelium assay; assay type: cell-based, human; details: C-HUVEC, 24 hours pre-treatment with 10 and 50 μM, TNFα 1 ng/ml 16 hours
Excerpt: (§4) Cell endothelial cultures and experimental protocols: umbilical cords were obtained from randomly selected healthy Caucasian (Control, C) and with Gestational Diabetes (GD) mothers delivering at the Hospital of Chieti and Pescara. All procedures were in agreement with the ethical standards of the Institutional Committee on Human Experimentation (Reference Number: 1879/09COET) and with the Declaration of Helsinki Principles. After approval of the protocol by the Institutional Review Board, signed informed consent was obtained from each participating subject. Primary C- and GD-HUVECs were obtained and used between the 3rd and 5th passages in vitro. […]
(§5) Adhesion of monocytes to endothelium assay: adhesion of U937 monocytes to C- and GD-HUVECs was evaluated in the basal state, after 16 hours of TNFα treatment (1 ng/ml) and in presence of ovothiol A (10-50 μM). The cells were grown to confluence in six-well culture plates and U937 adhesion was evaluated as previously described (Di Tomo, P., Lanuti, P., Di Pietro, N., Baldassarre, M. P. A., Marchisio, M., Pandolfi, A., Consoli, A., Formoso, G. (2017) Liraglutide mitigates TNF-α induced pro-atherogenic changes and Microvesicles release in HUVEC from diabetic women. Diabetes Metab. Res. Rev. doi: 10.1002/dmrr.2925).

[7] = test system: U937 monocytes adhesion to GD-HUVECs; experiment: Adhesion of monocytes to endothelium assay; assay type: cell-based, human; details: GD-HUVEC, 24 hours pre-treatment with 10 and 50 μM, TNFα 1 ng/ml 16 hours
Excerpt: as §4, §5

[8] = test system: VCAM-1 on GD-HUVEC; experiment: Flow cytometry, membrane exposure of VCAM-1; assay type: cell-based, human; details: 50 μM ovothiol A, TNFα
Excerpt: as §4
(§6) Flow cytometry: for flow cytofluorimetry analysis, C- and GD-HUVECs were stimulated as described in the experimental protocols. […] The intracellular levels of peroxynitrite (ONOO—) were detected in C- and GD-HUVECs by using the HKGreen-4A probe (10 μM, 30 min at 37° C.) synthesized and provided by the laboratory of Prof. […] Reactive Oxygen Species (ROS) levels were evaluated with the fluorogenic reagent dichlorofluorescein diacetate (DCF-DA, Sigma-Aldrich) (20 μM, 45 min at 37° C.). All samples were analyzed using a FACS Calibur or FACS Canto II (BD Bioscences). The levels of membrane proteins (VCAM-1 and ICAM-1), fluorescence detection of ONOO— and ROS were evaluated by cytometric analysis of over 10.000 events for each sample. […]

[9] = test system: VCAM-1 on C-HUVEC; experiment: Flow cytometry, membrane exposure of VCAM-1; assay type: cell-based, human; details: 50 μM ovothiol A, TNFα
Excerpt: as §4, §6

[10] = test system: peroxynitrite in GD-HUVECs; experiment: Peroxynitrite levels by flow cytometry, HKGreen-4A probe; assay type: cell-based, human; details: GD-HUVEC
Excerpt: as §1
(§7) Flow cytometry: for flow cytofluorimetry analysis, C- and GD-HUVECs were stimulated as described in the experimental protocols. Non-permeabilized cells were detached by tetra-acetic ethylene-diamine acid solution (EDTA) 5 mM, washed and resuspended in bovine serum albumin (BSA) 0.5%. Cells harvested by centrifugation at 800 rpm for 15 min were incubated with anti-VCAM-1 PE-conjugate (1:100, phycoerythrin; Biolegend, San Diego, Calif., USA) and anti-ICAM-1 FITC-conjugate (1:100, fluorescein isothiocyanate; Biolegend) antibodies, both for 30 min at 4° C. The intracellular levels of peroxynitrite (ONOO—) were detected in C- and GD-HUVECs by using the HKGreen-4A probe (10 μM, 30 min at 37° C.) synthesized and provided by the laboratory of Prof. Dan Yang's. Reactive Oxygen Species (ROS) levels were evaluated with the fluorogenic reagent dichlorofluorescein diacetate (DCF-DA, Sigma-Aldrich) (20 μM, 45 min at 37° C.). All samples were analyzed using a FACS Calibur or FACS Canto II (BD Bioscences). The levels of membrane proteins (VCAM-1 and ICAM-1), fluorescence detection of ONOO— and ROS were evaluated by cytometric analysis of over 10.000 events for each sample. All data were analyzed using FACS Diva (BD Bioscences) and FlowJo v.8.8.6 software (TreeStar, Ashland, Oreg.) and expressed as percentage (%) of positive cells or MFI (Mean Fluorescence Intensity) Ratio. The MFI Ratio was calculated by dividing the MFI of positive events by the MFI of negative events (MFI of secondary antibody).

[11] = test system: peroxynitrite in C-HUVECs; experiment: as above; assay type: cell-based, human; details: C-HUVEC
Excerpt: as §1, §7

[12] = test system: cGMP levels in C-HUVECs; experiment: Cyclic guanosine mono phosphate assay (cGMP), EIA; assay type: cell-based, human
Experimental: Cyclic guanosine mono phosphate assay (cGMP): intracellular cGMP levels were evaluated by using a commercially available Enzyme Immunoassay (EIA) kit (GE Healthcare, Little Chalfont, Buckinghamshire, UK).

[13] = Ovothiol A level in medium without the cells (HPLC); assay type: in vitro ADME; details: Control: medium without the cells, ovothiol A 50 μM
Experimental: as §3

[14] = test system: Hep-G2 cell line; details: epatocarcinoma cell lines; cited from earlier work
[15] = test system: ICAM-1 on C-HUVEC; experiment: Flow cytometry, membrane exposure of ICAM-1; assay type: cell-based, human; details: 50 μM ovothiol A, TNFα
Excerpt: as §4, §6

[16] = test system: ICAM-1 on GD-HUVEC; experiment: Flow cytometry, membrane exposure of ICAM-1; assay type: cell-based, human; details: 50 μM ovothiol A, TNFα
Excerpt: as §4, §6

[17] = test system: ROS in C-HUVECs; experiment: ROS levels by flow cytometry (DCF-DA); assay type: cell-based, human; details: C-HUVEC, in the absence of TNFα
Excerpt: as §4, §6

[18] = test system: ROS in GD-HUVECs; experiment: ROS levels by flow cytometry (DCF-DA); assay type: cell-based, human; details: GD-HUVEC, under inflammatory conditions (TNFα)
Excerpt: as §4, §6

[19] = 50 μM, in the presence or absence of TNFα
[20] = C-HUVECs incubated 30 minutes with ovothiol A 50 μM, HPLC
[21] = GD-HUVECs incubated 30 minutes with ovothiol A 50 μM, HPLC
[22] = pre-treatment with 50 μM, after exposure to TNFα
[23] = Ionomycin 50 nM in combination with PMA 0.3 μM, positive control

ovothiol A
cell viability parameters (MTT) [1, 19]: no significant changes
cytotoxicity (viability by MTT assay) ([1]; 100 μM ovothiol A, 24 h): cytotoxic
cell viability parameters (MTT) [2, 19]: no significant changes
cytotoxicity (viability by MTT assay) ([2]; 100 μM ovothiol A, 24 h): cytotoxic
intracellular GSH levels [3]: increased significantly
kinetic decay of the compound in the medium ([4]; C-HUVEC medium, 50 μM, compared to the medium without the cells): very rapid
ovothiol A in cells [4, 20]: 1.18 pmol/cell
ovothiol A in medium [4, 20]: 14.86 ± 1.24 µmol/L
kinetic decay of the compound in the medium ([5]; GD-HUVEC medium, 50 μM, compared to the medium without the cells): very rapid
ovothiol A in cells [5, 21]: 1.53 pmol/cell
ovothiol A in medium [5, 21]: 10.08 ± 1.68 µmol/L
U937 cell adhesion (number of adherent cells) [6]: only on GD-HUVECs
U937 cell adhesion (number of adherent cells) [7]: significant reduction
exposure of VCAM-1 on the membrane [8]: significantly reduced
exposure of VCAM-1 on the membrane [9]: significantly reduced
levels of peroxynitrite [10, 22]: significantly reduced
levels of peroxynitrite [11, 22]: significantly reduced
cGMP levels, effect of ovothiol A with TNFα treatment ([12]; C-HUVEC, TNFα+Ovot): abolished
cGMP levels ([12]; C-HUVEC, ovothiol A treatment): significantly increased
cGMP levels, effect of ovothiol A with L-NAME pre-incubation ([12]; pre-incubation with L-NAME 1 mM for 45 minutes): not affected
ovothiol A in medium [13]: 45 µmol/L
autophagy [14]: induces autophagy
reduction of reactive oxygen species [14]: without inducing a reduction of reactive oxygen species
effect on ICAM-1 levels (membrane exposure) [15]: did not reach the statistical significance
effect on ICAM-1 levels (membrane exposure) [16]: did not reach the statistical significance
ROS levels [17]: reduced ROS levels
ROS levels [18]: reduced ROS levels

C[C@H](CCC(=O)O)C[C@H](C)C[C@H](C)C(=O)/C=C(\O)[C@H](C)C[C@H](C)C/C=C/[C@@H](C)[C@@H](O)[C@@H](C)[C@@H](O)C[C@@H]1CC[C@@](C)([C@H]2CC[C@@](C)([C@@H](C)O)O2)O1 [Ionomycin, reference compound]
peroxynitrite formation [10, 23]: induced peroxynitrite formation
peroxynitrite formation [11, 23]: induced peroxynitrite formation
cGMP levels ([12]; C-HUVEC, positive control): induced the increase of cGMP levels

COC(=O)[C@@H](N)CCCNC(=N)N[N+](=O)[O-] [L-NAME, reference compound]
cGMP levels, addition of L-NAME to Ionomycin ([12]; C-HUVEC, Ionomycin-stimulated): restored the initial levels
